Earlier results on one molecule are cited in article PMC3461162 (British Journal of Cancer, 2012).

The conditions of this data set: phase I, currently being investigated; no reference given; cited from earlier work.

`CNC(=O)c1cccc(-c2ccc3c(N4CCOC[C@@H]4C)nc(N4CCOC[C@@H]4C)nc3n2)c1` [AZD2014]: the Rise in transaminases entry is reported as “no rise in transaminases has been reported”.
